# From patent CN101862374A, “莲子心及其提取物的新用途” (Individual, priority 2010, dated 2010)
# Experiments:
# [1] = system: type II 5α-reductase [II型5α-还原酶]; test: Spectrophotometric (NADPH, 340 nm) 5α-reductase inhibition; format: biochemical; settings: for mean inhibition rate: NADPH consumption, 10 min, 37 °C, serial concentrations, average; for inhibition rate compared with finasteride: versus finasteride [非那甾胺]
# [2] = system: type II 5α-reductase [II型5α-还原酶]; test: DHT kit assay of 5α-reductase inhibition; format: biochemical; settings: 37 °C, 30 min
# [3] = system: prostate smooth muscle α1-AR [前列腺平滑肌α1-AR]; test: Competitive inhibition of 125IBE binding to α1-AR of prostate smooth muscle membranes; set-up: species or system rat; settings: high dose
# [4] = system: hyperlipidemia model rats [高血脂症模型大鼠]; settings: rat; cited from earlier work
# [5] = system: platelets of hyperlipidemia patients and healthy persons [高脂血症患者和健康人血小板]; settings: in vitro, blood, several inducers; cited from earlier work
# [6] = system: rat myocardium with ischemia-reperfusion injury [大鼠缺血再灌注损伤心肌]; settings: cited from earlier work
# [7] = system: experimental hyperlipidemic rats [实验性高脂血症大鼠]; settings: rat; cited from earlier work
# [8] = system: rat cerebral ischemia-reperfusion [大鼠脑缺血再灌注]; settings: cited from earlier work
# [9] = system: autoxidation [自氧化]; settings: cited from earlier work
# [10] = system: oxidatively damaged erythrocytes [氧化损伤红细胞]; settings: cited from earlier work
structure (smiles),measurement,setting,value
COc1ccc(C[C@@H]2c3cc(Oc4cc(C[C@@H]5c6cc(OC)c(OC)cc6CCN5C)ccc4O)c(OC)cc3CCN2C)cc1 [甲基莲心碱],mean inhibition rate,[1],68.22%
same,inhibition rate compared with finasteride,[1],强于非那甾胺
same,inhibition of 5α-reductase activity by change of DHT concentration,[2],有明显抑制作用
same,inhibition of prostate smooth muscle α1-AR,[3],能抑制前列腺平滑肌α1-AR
same,antioxidant action of the organism,[4],增强机体抗氧化作用
same,degree of lipid peroxidation,[4],减轻脂质过氧化的程度
same,effect on blood lipids,[4],具有显著的抑制作用
same,inhibition of platelet aggregation,[5],可明显抑制多种诱聚剂诱导的高脂血症患者和健康人血小板聚集
COc1cc2c(cc1OC)[C@@H](Cc1ccc(O)c(Oc3cc4c(cc3OC)CCN(C)[C@@H]4Cc3ccc(O)cc3)c1)N(C)CC2 [莲心碱],mean inhibition rate,[1],71.43%
same,inhibition of 5α-reductase activity (in words),[1]; by NADPH determination,有明显抑制作用
same,inhibition rate compared with finasteride,[1],强于非那甾胺
same,inhibition of 5α-reductase activity by change of DHT concentration,[2],有明显抑制作用
same,inhibition of prostate smooth muscle α1-AR,[3],能抑制前列腺平滑肌α1-AR
same,area of myocardial infarction,[6],可减少心肌梗死的面积
same,damage of myocardial cells,[6],减轻心肌细胞的损伤
same,protection of ischemia-reperfusion injured myocardium,[6],有保护作用
same,atherosclerosis index,[7],显著降低
same,serum low-density lipoprotein cholesterol,[7],显著降低
same,serum total cholesterol,[7],显著降低
same,serum triglycerides,[7],显著降低
same,C-Fos protein expression after cerebral ischemia-reperfusion,[8],抑制脑缺血再灌注后NOS和C-Fos蛋白的表达
same,NOS expression after cerebral ischemia-reperfusion,[8],抑制脑缺血再灌注后NOS和C-Fos蛋白的表达
same,extent of infarct lesion,[8],可显著减少大鼠梗死病灶范围
COc1ccc(C[C@@H]2c3cc(Oc4cc(C[C@@H]5c6cc(O)c(OC)cc6CCN5C)ccc4O)c(OC)cc3CCN2C)cc1 [异莲心碱],mean inhibition rate,[1],65.48%
same,inhibition rate compared with finasteride,[1],强于非那甾胺
same,inhibition of 5α-reductase activity by change of DHT concentration,[2],有明显抑制作用
same,inhibition of autoxidation,[9],能显著抑制自氧化
same,protection of oxidatively damaged erythrocytes,[10],对氧化损伤红细胞有保护作用
"CC(C)(C)NC(=O)[C@H]1CC[C@H]2[C@@H]3CC[C@H]4NC(=O)C=C[C@]4(C)[C@H]3CC[C@]12C [非那雄胺, reference compound]",mean inhibition rate,[1],57.14%
